Results: BindingDB's records for doi:10.1021/jm00124a025 (Smith Kline & French Laboratories, 1989)

Target: Vasopressin V2 receptor (Canis lupus familiaris)
Experiment: Binding affinity of compound towards Vasopressin receptor by binding [3H]LVP to dog renal medullary preparation.

Ki | SMILES
0.7 nM | CCOc1ccc(C[C@@H]2NC(=O)CC3(CCC(C)CC3)SSC[C@H](C(=O)N[C@@H](CCCN=C(N)N)C(=O)N[C@@H](CCCN=C(N)N)C(N)=O)NC(=O)[C@H](CC(N)=O)NC(=O)[C@H](C(C)C)NC(=O)[C@H](Cc3ccccc3)NC2=O)cc1 (some centres not stated) [19-Benzyl-13-carbamoylmethyl-22-(4-ethoxy-benzyl)-16-isopropyl-3-methyl-12,15,18,21,24-pentaoxo-7,8-dithia-11,14,17,20,23-pentaaza-spiro[5.19]pentacosane-10-carboxylic acid [1-(1-carbamoyl-4-guanidino-butylcarbamoyl)-4-guanidino-butyl]-amide]
0.5 nM | CCOc1ccc(C[C@@H]2NC(=O)CC3(CCCCC3)SSC[C@H](C(=O)N[C@@H](CCCN=C(N)N)C(=O)N[C@@H](CCCN=C(N)N)C(N)=O)NC(=O)[C@@H](CC(N)=O)NC(=O)[C@H](C(C)C)NC(=O)[C@@H](Cc3ccccc3)NC2=O)cc1 [19-Benzyl-13-carbamoylmethyl-22-(4-ethoxy-benzyl)-16-isopropyl-12,15,18,21,24-pentaoxo-7,8-dithia-11,14,17,20,23-pentaaza-spiro[5.19]pentacosane-10-carboxylic acid [1-(1-carbamoyl-4-guanidino-butylcarbamoyl)-4-guanidino-butyl]-amide]
